Assay results taken from ChEMBL document CHEMBL1145498, “A systematic interaction map of validated kinase inhibitors with Ser/Thr kinases” (Proc Natl Acad Sci U S A, 2007).

Tests used:
[1] = molecular target: Mitogen-activated protein kinase 11 (Homo sapiens, UniProt Q15759)
[2] = molecular target: T1, Serine/threonine-protein kinase 4 (Homo sapiens) (UniProt Q13043)
T1 sequence (whole entry): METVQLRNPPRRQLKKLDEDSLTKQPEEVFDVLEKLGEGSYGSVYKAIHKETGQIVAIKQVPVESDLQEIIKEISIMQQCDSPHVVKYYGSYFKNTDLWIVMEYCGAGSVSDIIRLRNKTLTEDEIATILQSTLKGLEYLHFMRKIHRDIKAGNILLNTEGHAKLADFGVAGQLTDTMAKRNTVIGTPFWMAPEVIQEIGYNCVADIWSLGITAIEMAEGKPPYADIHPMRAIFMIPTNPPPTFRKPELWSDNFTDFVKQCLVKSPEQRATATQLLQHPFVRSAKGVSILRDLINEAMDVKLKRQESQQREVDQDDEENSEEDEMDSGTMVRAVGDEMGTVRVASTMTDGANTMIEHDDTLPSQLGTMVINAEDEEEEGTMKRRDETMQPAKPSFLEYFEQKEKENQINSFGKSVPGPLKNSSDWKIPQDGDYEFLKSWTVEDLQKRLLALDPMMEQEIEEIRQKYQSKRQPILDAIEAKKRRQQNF

[3] = molecular target: Calcium/calmodulin-dependent protein kinase type II subunit gamma (Homo sapiens) (UniProt Q13555)
[4] = molecular target: Serine/threonine-protein kinase 10 (Homo sapiens) (UniProt O94804)
[5] = molecular target: Serine/threonine-protein kinase VRK2 (Homo sapiens) (UniProt Q86Y07)
[6] = molecular target: Serine/threonine-protein kinase pim-3 (Homo sapiens) (UniProt Q86V86)
[7] = molecular target: Serine/threonine-protein kinase RIO2 (Homo sapiens) (UniProt Q9BVS4)
[8] = molecular target: Serine/threonine-protein kinase PAK 6 (Homo sapiens) (UniProt Q9NQU5)
[9] = molecular target: Mitogen-activated protein kinase 6 (Homo sapiens) (UniProt Q16659)
[10] = molecular target: cAMP-dependent protein kinase catalytic subunit alpha (Homo sapiens) (UniProt P17612)
[11] = molecular target: Serine/threonine-protein kinase PAK 5 (Homo sapiens) (UniProt Q9P286)
[12] = molecular target: TRAF2 and NCK-interacting protein kinase (Homo sapiens) (UniProt Q9UKE5)
[13] = molecular target: Serine/threonine-protein kinase PAK 4 (Homo sapiens) (UniProt O96013)
[14] = molecular target: T2, Calcium/calmodulin-dependent protein kinase type IV (Homo sapiens) (UniProt Q16566)
T2 sequence (whole entry): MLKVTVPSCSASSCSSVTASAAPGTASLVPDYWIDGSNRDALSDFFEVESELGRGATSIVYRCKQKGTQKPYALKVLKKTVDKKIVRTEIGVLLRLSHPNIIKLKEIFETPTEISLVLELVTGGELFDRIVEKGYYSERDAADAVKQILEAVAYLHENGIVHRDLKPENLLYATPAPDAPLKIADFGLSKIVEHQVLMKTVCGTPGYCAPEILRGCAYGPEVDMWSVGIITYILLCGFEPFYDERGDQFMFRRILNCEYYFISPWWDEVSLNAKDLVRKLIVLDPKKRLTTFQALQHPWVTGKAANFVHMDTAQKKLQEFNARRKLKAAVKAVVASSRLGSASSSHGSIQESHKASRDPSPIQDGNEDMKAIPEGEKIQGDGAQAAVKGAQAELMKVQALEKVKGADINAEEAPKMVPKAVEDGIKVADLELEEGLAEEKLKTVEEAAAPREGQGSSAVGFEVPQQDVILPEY

[15] = molecular target: T3, Dual specificity mitogen-activated protein kinase kinase 6 (Homo sapiens) (UniProt P52564)
T3 sequence (whole entry): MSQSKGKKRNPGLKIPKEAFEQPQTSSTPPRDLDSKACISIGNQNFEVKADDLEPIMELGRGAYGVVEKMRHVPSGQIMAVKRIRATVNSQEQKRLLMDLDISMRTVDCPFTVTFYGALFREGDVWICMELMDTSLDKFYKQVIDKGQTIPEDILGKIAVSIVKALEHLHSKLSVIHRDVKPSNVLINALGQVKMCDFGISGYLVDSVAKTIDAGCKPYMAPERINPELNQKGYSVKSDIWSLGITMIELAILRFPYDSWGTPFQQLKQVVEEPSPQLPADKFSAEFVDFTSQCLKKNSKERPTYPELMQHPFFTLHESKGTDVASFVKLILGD

[16] = molecular target: Ribosomal protein S6 kinase alpha-3 (Homo sapiens) (UniProt P51812)
[17] = molecular target: T4, Serine/threonine-protein kinase VRK3 (Homo sapiens) (UniProt Q8IV63)
T4 sequence (whole entry): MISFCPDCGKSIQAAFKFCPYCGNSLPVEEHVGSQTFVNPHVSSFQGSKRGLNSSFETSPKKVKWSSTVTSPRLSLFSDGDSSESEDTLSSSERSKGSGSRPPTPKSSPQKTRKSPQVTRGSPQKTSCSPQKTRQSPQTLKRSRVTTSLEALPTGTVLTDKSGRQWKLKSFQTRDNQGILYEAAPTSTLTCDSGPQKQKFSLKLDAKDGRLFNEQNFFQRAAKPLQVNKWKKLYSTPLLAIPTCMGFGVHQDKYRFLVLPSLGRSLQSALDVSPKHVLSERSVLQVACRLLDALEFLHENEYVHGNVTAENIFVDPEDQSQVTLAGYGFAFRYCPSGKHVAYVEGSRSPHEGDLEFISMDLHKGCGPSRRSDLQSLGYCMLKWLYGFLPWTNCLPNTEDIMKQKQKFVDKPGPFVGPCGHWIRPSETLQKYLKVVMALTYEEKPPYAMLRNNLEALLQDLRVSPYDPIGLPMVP

[18] = molecular target: Casein kinase I isoform gamma-3 (Homo sapiens) (UniProt Q9Y6M4)

Serine/threonine-protein kinase PAK 4 (Homo sapiens), sequence (O96013 whole entry, looked up): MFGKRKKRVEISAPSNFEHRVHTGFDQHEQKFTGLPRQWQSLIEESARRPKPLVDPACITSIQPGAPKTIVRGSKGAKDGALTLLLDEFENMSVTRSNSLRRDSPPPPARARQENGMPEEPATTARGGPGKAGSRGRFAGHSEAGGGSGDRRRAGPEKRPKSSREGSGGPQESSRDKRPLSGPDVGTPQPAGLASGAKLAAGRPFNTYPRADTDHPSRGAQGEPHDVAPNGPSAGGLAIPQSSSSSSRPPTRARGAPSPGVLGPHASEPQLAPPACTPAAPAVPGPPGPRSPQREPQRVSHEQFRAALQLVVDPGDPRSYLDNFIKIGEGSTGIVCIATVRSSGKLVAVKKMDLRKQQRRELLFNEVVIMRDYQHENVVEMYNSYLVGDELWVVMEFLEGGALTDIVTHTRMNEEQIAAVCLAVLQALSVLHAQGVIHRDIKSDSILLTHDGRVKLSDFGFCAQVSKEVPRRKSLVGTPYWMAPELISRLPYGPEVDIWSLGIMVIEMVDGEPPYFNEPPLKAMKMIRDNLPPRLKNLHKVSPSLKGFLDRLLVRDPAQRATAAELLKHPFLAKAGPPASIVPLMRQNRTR
Mitogen-activated protein kinase 6 (Homo sapiens), sequence (Q16659 whole entry): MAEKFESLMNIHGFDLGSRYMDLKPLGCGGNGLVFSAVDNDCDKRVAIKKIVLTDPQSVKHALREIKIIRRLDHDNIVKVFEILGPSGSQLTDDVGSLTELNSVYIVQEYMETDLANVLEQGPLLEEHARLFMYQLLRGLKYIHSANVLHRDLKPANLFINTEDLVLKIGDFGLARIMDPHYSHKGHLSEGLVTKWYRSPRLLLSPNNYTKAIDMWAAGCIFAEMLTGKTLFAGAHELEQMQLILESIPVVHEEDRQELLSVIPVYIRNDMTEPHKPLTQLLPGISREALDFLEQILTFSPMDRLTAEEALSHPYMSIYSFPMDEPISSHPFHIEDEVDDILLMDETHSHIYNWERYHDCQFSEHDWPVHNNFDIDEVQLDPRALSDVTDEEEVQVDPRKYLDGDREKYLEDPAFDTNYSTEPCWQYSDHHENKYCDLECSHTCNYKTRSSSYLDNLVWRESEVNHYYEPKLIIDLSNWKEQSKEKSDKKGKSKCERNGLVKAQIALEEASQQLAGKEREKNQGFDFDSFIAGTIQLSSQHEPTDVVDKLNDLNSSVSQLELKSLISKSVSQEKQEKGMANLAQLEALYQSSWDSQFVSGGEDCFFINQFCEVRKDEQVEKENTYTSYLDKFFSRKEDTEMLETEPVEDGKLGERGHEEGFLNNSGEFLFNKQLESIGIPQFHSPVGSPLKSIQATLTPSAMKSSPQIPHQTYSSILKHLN
Mitogen-activated protein kinase 11, sequence (Q15759 whole entry): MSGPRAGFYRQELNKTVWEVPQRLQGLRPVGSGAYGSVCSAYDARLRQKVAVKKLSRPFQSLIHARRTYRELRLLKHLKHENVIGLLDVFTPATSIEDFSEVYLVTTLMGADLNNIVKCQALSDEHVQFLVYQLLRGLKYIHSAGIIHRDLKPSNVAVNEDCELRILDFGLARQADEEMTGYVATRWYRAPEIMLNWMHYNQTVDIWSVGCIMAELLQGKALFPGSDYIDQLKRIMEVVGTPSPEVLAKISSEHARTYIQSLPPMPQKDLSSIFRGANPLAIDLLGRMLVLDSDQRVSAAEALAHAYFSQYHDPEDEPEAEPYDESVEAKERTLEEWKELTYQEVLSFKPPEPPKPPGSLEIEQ
Serine/threonine-protein kinase PAK 5 (Homo sapiens), sequence (Q9P286 whole entry, looked up): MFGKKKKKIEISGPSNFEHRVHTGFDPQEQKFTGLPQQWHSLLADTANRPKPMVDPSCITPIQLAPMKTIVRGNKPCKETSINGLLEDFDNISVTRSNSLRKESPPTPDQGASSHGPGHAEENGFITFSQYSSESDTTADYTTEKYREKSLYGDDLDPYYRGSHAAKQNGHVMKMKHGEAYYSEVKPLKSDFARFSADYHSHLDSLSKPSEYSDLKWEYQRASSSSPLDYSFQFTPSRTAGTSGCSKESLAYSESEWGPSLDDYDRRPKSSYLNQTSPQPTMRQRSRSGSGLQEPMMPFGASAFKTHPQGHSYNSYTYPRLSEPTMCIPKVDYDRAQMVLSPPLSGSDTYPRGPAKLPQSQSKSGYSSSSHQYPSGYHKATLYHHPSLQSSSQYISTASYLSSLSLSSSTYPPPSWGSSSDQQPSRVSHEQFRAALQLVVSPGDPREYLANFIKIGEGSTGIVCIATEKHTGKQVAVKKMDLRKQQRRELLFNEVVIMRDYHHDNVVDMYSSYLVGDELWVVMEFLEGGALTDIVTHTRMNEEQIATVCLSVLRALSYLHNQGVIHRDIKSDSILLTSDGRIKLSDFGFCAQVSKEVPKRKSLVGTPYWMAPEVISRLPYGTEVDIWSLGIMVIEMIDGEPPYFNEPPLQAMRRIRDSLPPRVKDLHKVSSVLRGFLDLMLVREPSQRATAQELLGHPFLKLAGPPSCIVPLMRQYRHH
Ribosomal protein S6 kinase alpha-3 (Homo sapiens), sequence (P51812 whole entry): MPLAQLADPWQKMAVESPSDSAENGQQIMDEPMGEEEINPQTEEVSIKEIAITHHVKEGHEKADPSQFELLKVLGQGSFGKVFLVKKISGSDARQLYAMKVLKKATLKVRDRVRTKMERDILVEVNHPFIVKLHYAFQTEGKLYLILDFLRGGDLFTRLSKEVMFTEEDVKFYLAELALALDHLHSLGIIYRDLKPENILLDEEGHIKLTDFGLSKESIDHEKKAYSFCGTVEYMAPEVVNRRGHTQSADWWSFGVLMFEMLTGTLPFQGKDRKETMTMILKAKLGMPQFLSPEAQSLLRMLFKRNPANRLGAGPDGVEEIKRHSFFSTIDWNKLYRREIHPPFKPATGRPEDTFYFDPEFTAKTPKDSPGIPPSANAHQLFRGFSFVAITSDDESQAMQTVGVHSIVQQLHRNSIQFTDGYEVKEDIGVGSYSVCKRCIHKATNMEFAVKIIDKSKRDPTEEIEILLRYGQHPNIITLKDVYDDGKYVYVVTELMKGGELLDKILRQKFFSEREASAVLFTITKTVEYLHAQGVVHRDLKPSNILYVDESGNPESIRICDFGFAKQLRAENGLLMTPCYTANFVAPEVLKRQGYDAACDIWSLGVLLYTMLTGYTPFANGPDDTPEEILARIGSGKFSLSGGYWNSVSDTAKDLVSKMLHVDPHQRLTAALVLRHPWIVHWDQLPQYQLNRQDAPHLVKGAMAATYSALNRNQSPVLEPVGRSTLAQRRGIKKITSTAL
TRAF2 and NCK-interacting protein kinase (Homo sapiens), sequence (Q9UKE5 whole entry, looked up): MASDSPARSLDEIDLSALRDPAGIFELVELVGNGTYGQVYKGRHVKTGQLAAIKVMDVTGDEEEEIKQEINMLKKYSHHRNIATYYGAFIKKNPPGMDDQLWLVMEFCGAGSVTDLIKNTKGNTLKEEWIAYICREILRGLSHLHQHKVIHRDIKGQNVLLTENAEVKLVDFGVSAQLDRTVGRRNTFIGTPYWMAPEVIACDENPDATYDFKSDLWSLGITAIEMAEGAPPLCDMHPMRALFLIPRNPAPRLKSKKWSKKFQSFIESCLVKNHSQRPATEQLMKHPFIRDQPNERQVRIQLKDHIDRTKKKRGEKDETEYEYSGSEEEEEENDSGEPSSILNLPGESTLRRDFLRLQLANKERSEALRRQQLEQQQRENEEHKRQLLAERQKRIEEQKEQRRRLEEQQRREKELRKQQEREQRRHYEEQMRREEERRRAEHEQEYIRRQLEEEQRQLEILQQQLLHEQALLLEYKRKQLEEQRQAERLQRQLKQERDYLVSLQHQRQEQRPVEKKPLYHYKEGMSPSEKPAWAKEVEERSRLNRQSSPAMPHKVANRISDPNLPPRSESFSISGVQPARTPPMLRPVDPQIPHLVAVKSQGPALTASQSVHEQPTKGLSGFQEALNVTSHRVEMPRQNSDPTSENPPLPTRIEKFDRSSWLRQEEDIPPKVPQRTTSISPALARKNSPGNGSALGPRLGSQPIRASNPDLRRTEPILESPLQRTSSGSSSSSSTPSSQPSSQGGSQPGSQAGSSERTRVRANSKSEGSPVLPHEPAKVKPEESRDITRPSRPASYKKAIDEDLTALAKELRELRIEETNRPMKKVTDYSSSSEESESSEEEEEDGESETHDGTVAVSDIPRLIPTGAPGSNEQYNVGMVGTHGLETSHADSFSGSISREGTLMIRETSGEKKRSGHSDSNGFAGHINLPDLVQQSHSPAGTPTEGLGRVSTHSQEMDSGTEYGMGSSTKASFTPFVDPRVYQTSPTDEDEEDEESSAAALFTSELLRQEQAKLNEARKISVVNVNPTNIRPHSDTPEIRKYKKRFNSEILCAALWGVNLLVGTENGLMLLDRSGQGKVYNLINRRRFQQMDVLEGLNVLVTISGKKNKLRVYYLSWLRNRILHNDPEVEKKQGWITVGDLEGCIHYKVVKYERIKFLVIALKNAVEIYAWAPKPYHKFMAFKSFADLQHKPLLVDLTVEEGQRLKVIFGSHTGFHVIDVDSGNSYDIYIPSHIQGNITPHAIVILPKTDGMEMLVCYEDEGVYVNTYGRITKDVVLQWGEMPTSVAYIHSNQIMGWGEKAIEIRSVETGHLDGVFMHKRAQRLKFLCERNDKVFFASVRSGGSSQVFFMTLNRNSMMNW

| Compound | ΔTm [1] [°C] | ΔTm [2] [°C] | ΔTm [3] [°C] | ΔTm [4] [°C] | ΔTm [5] [°C] | ΔTm [6] [°C] | ΔTm [7] [°C] | ΔTm [8] [°C] | ΔTm [9] [°C] | ΔTm [10] [°C] | ΔTm [11] [°C] | ΔTm [12] [°C] | ΔTm [13] [°C] | ΔTm [14] [°C] | ΔTm [15] [°C] | ΔTm [16] [°C] | ΔTm [17] [°C] | ΔTm [18] [°C] |
| --- | --- | --- | --- | --- | --- | --- | --- | --- | --- | --- | --- | --- | --- | --- | --- | --- | --- | --- |
| CCN1/C(=C/C(C)=O)Sc2ccc(OC)cc21 | -0.1 | 0.1 | 0.1 | 0.4 | 0.4 | 0.2 | -0.2 | -0.9 | 0 | -0.5 | 0 | 0.1 | 0.9 | 0.8 | 0.3 | 0.4 | 0.1 |  |
| NC(=O)c1ccc2[nH]c(-c3ccc(Oc4ccc(Cl)cc4)cc3)nc2c1 | -0.4 | -0.2 | -0.1 | 0.3 | 0.5 | -0.8 | 2.4 | -0.8 | 0.5 | 0.4 | -0.2 | -1.6 | 1.3 | -0.4 | 0.4 | 0.7 | 1.2 | 1.3 |
| COc1nccc(-c2c(-c3ccc(F)cc3)ncn2[C@H]2CC[C@H](O)CC2)n1 | 6.6 | 6.1 | 0.1 | 1.9 | 0.8 | -0.2 | 0 | -0.3 | 0.8 | -0.8 | 0.1 | -0.5 | 0.7 | 0.2 | 0 | 0.6 | -0.1 | 1.2 |
| CN(C)C[C@@H]1CCn2cc(c3ccccc32)C2=C(C(=O)NC2=O)c2cn(c3ccccc23)CCO1 [RUBOXISTAURIN] | 0.3 | 0.6 | 1.6 | 7.2 | 1 | 5.8 | 1.8 | 0.8 | 0.1 |  | 0.9 | -0.3 |  | 2.9 | 0.5 | 8.1 | -0.3 | 0.5 |
| c1ccc(-c2n[nH]c3c2oc2ccccc23)cc1 | 1.2 | 4.3 | 0.4 | 1.9 | 0.6 | -1.3 | 2.9 | -0.3 | 0.1 | 2.8 | 0.3 | 0.4 | -0.3 | -0.2 | 1 | 0.8 | 1.8 | 0.5 |
| O=C(O)c1cc(N(Cc2ccccc2O)Cc2cc(O)ccc2O)ccc1O [LAVENDUSTIN A] | 0.3 | 0.5 | -0.1 | 0.1 | -0.6 | 0.4 | 0 | -0.3 | 0.8 | 1.2 | -0.5 | 0 | 0.1 | 0.5 | -1.1 | -0.2 | 0.7 | 0.8 |
| Nc1cccc(-c2cc3c(Oc4cccc(O)c4)ncnc3[nH]2)c1 | 5.4 | 5.1 | 0.1 | 5.9 | 0.5 | 0.3 | 2.4 | 1.3 | 1.2 | -0.6 | 1.7 | -0.4 | 2.8 | 0.2 | 2.7 | 0.4 | 2.2 | 1 |
| Cc1cc(Nc2nc(-c3ccccc3)nc3ccccc23)n[nH]1 | 0.1 | 7.4 | 1.9 | 11.1 | 0.4 | 5.2 | 5.3 | 5.4 | 0.2 | 6.4 | 5.2 | -1 | 5.9 | 4.7 | 2.3 | 0.8 | 6.6 | 2.8 |
| O=C1NC(=O)c2c1c1c3ccccc3[nH]c1n1cncc21 [ISOGRANULATIMIDE] | 2 | 2.5 | 2.5 | 5.4 | 2 | 8.8 | 7.3 | -0.5 | 1.2 | 5.9 | 1.3 | 0 | 3.8 | 6 | 14.6 | 5.2 | 3.7 | 3.6 |
| Cc1c2ccncc2c(C)c2c1[nH]c1ccccc12 [ELLIPTECINE] | 0.6 | 4 | 1.6 | 1.9 | -0.7 | 1.3 | 3.8 | -0.5 | 1.5 | 5.9 | 0.9 | -0.2 | 0.7 | 0.4 | 6.3 | 3.7 | 1.3 | 0.7 |
| Oc1cc(O)cc(/C=C/c2ccc(O)c(O)c2)c1 [PICEATANNOL] | 0.8 | 0.3 | 0.2 | 0.6 | -0.4 | 3.5 | 0.6 | 0.5 | 0.9 | 2.7 | -0.9 | 0.4 | 1.5 | 0.2 | 0.1 |  | -0.2 | 0.5 |
| O=C1Nc2ccccc2/C1=C\c1ccc[nH]1 | 0.3 | 7.7 | 1.4 | 5.3 | 3.4 | 2.1 | 3 | 1.6 | -0.1 | 1.7 | 0.7 | 6.2 | 1.2 | 0.6 | 3.4 |  | 0.1 | 1.8 |
